For test [1], the system named is promoters of CCL5, CXCL9, CXCL10 and CXCL11. The experiment in a line: ChIP-qPCR on chemokine promoters. The format is cell-based, human. Particulars: SCC23 cells. On the procedure:
ChIP-qPCR assays were performed as previously described (Ding et al, 2013). Briefly, SCC cells were sequentially treated with dimethyl 3,3′-dithiobispropionimidate-HCl (DTBP; Cat #20665, Thermo Fisher Scientific) solution and formaldehyde, and harvested with a cell scraper. The cell pellet was lysed with ChIP lysis buffer and sonicated to generate 200-500 bp DNA fragments with a sonicator. The fragmented chromatins were immunoprecipitated with anti-BMI1 (Cell Signaling Technology, Cat #6964), anti-Ubiquityl-Histone H2A (Lys119) (Cell Signaling Technology, Cat #8240) overnight at 4° C. The precipitated DNA-chromatin products were purified with ChIP DNA clean & concentrator kit (Cat #D5205, Zymo Research) and the DNA levels were quantified by qPCR. Data is presented as the percentage of input DNA.

In test [2] the test system is B16 melanoma. The format is in vivo, mouse. As to conditions: B16 tumors in immunocompetent mice. On the procedure:
C57/6J mice were injected in the flank subcutaneously with B16 melanoma cells (250,000 cells per site). Tumors were measured every 3 days once palpable (long diameter and short diameter) with a caliper. Tumor volume was determined using the volume formula for an ellipsoid: ½×D×d^2 where D is the longer diameter and d is the shorter diameter. Mice were sacrificed when tumors reached 1000 mm^3 or upon ulceration/bleeding.

In test [3] the test system is pIRF3. The experiment in a line: pIRF3 immunofluorescent staining in 4NQO-induced HNSCC. On the set-up: species or system mouse. As to conditions: 4NQO-induced HNSCC in vivo.
The subject of test [4] is BMI1. Briefly: BMI1 expression in HNSCC tumors by immunostaining and Western blot. It counts as in vivo, mouse. Particulars: immunostaining and Western blot of HNSCC tumors. On the procedure: Cells were lysed using the radioimmunoprecipitation assay (RIPA) buffer (Sigma-Aldrich, Cat #R0278) added with a cocktail of protease inhibitors (Thermo Fisher Scientific, Cat ##78430) and phosphatase inhibitors (Sigma-Aldrich, Cat #4906845001). Protein extracts were resolved on a 10% or 15% SDS polyacrylamide gel and then transferred to a polyvinylidene difluoride membrane. Membranes were blocked with 5% milk for 1 h and incubated with primary antibodies overnight at 4° C. […] The signals were detected using the Clarity Western ECL kit (Bio-Rad, Cat #1705060). […] After treatment, supernatants were collected, and the protein levels of CCL5, CXCL9, CXCL10 and CXCL11 were measured with ELISA (R&D Systems, Cat #DRN00B, DCX900, DIP100, DCX110) according to the manufacturer's instructions.
For orientation: In western blotting, separated proteins are transferred to a membrane and probed.

Test [5] has as its system BMI1. The experiment in a line: Western blot of BMI1 and H2AUb in SCC23 and SCC1 cells. The format is cell-based, human. On the procedure: Human SCC23 and SCC1 cells were grown in DMEM containing 10% FBS and antibiotics (streptomycin and penicillin) at 37° C. in a 5% CO2 atmosphere. To generate lentiviruses, scramble control (shCtrl, Addgene, Cat #1864; see Sarbassov et al Science 2005 Feb. 18; 307(5712):1098-101) and BMI1 specific shRNA lentiviral plasmids (shBmi1, Sigma-Aldrich, Cat #TRCN0000020156, comprising […], SEQ ID NO:35) were transfected into HEK293T cells with two helper plasmids psPAX2 (Addgene, Cat #12260) and pMD2.G (Addgene, Cat #12259). Viral supernatant was harvested 72 h after transfection and passed through a 0.45 μm filter to remove cell debris and live cells. Collected lentiviruses were used directly to infect cells with the addition of polybrene (Sigma-Aldrich, Cat #H9268), or frozen at −80° C. for later use. […]
Cells were lysed using the radioimmunoprecipitation assay (RIPA) buffer (Sigma-Aldrich, Cat #R0278) added with a cocktail of protease inhibitors (Thermo Fisher Scientific, Cat ##78430) and phosphatase inhibitors (Sigma-Aldrich, Cat #4906845001). […] The signals were detected using the Clarity Western ECL kit (Bio-Rad, Cat #1705060). […] After treatment, supernatants were collected, and the protein levels of CCL5, CXCL9, CXCL10 and CXCL11 were measured with ELISA (R&D Systems, Cat #DRN00B, DCX900, DIP100, DCX110) according to the manufacturer's instructions.

Test [6] relates to IFNβ. Briefly: qRT-PCR of IFNβ mRNA. Particulars: SCC23 cells. The format is cell-based, human. On the procedure: For qRT-PCR, total RNA was prepared using TRIzol reagent (Thermo Fisher Scientific Cat #15596026), and 1 μg of RNA was reversely transcribed with random primer (Thermo Fisher Scientific Cat #48190011), dNTP mix (Thermo Fisher Scientific, Cat #18427013), and M-MuLV Reverse Transcriptase (New England Biolabs, Cat #M0253L). The levels of mRNA were […] measured using a SYBRGreen supermix (Bio-Rad, Cat #1708880). GAPDH was used as an internal control.
(In general: In qPCR the cycle at which signal appears reflects the starting amount.)

For test [7], the system named is xenografted HNSCC. As to conditions: human tumor cells in immunodeficient mice; cited from earlier work.
Test [8] concerns HNSCC tumor cells. The experiment in a line: Anti-active caspase-3 (Ac-casp3) immunostaining of apoptosis in HNSCC. The format is in vivo, mouse. Particulars: 4NQO-induced HNSCC, treated 4 weeks. Here is the method:
The immunocomplexes were detected and visualized using related secondary antibodies conjugated with Cy2 or Cy3 (Jackson ImmunoResearch Laboratories). […] At least three sections from each HNSCC lesions were immunostained and analyzed. Tumor cells (>150) and CD8+, Ac-casp3+ and Tomato^+ cells of these tumor cell areas were counted manually in each section. The percentage of CD8+, Ac-casp3^+ and Tomato^+ cells were calculated by dividing those cells with tumor cells and averaged from the sections.

Test [9] has as its system cGAS-STING-IRF3 signaling. Briefly: Western blot of phosphorylated STING, TBK1, IRF3. The format is cell-based, human. On the procedure: Cells were lysed using the radioimmunoprecipitation assay (RIPA) buffer (Sigma-Aldrich, Cat #R0278) added with a cocktail of protease inhibitors (Thermo Fisher Scientific, Cat ##78430) and phosphatase inhibitors (Sigma-Aldrich, Cat #4906845001). Protein extracts were resolved on a 10% or 15% SDS polyacrylamide gel and then transferred to a polyvinylidene difluoride membrane. Membranes were blocked with 5% milk for 1 h and incubated with primary antibodies overnight at 4° C. Primary antibodies used in this study were: anti-phospho-STING (Ser366) (1:1,000; Cell Signaling Technology, Cat #19781), anti-STING (1:1,000; Cell Signaling Technology, Cat #13647), anti-phospho-TBK1 (Ser172) (1:1,000; Cell Signaling Technology, Cat #5483), anti-TBK1 (1:1,000; Cell Signaling Technology, Cat #3504), anti-phospho-IRF3 (Ser396) (1:1,000; Cell Signaling Technology, Cat #29047), anti-IRF3 (1:1,000; Cell Signaling Technology, Cat #4302), anti-BMI1 (1:1,000; Cell Signaling Technology, Cat #6964), anti-Ubiquityl-Histone H2A (Lys119) (1:1000, Cell Signaling Technology, Cat #8240), anti-phospho Histone H2A.X (Ser139) (1:1000; Cell Signaling Technology, Cat #9718), and anti-GAPDH (1:1000; Cell Signaling Technology, Cat #5174), anti-Histone H3 (1:2,000; Cell Signaling Technology, Cat #4499). The signals were detected using the Clarity Western ECL kit (Bio-Rad, Cat #1705060). To measure the protein levels of CCL5, CXCL9, CXCL10 and CXCL11, cells were treated with PTC209 or shBMI1 knockdown for 48 hr. After treatment, supernatants were collected, and the protein levels of CCL5, CXCL9, CXCL10 and CXCL11 were measured with ELISA (R&D Systems, Cat #DRN00B, DCX900, DIP100, DCX110) according to the manufacturer's instructions.

In the case of `COc1cc(Br)c(Nc2nc(-c3c(C)nc4ncccn34)cs2)c(Br)c1` [PTC209, N-(2,6-dibromo-4-methoxyphenyl)-4-(2-methylimidazo[1,2-a]pyrimidin-3-yl)thiazol-2-amine], in test [1], the “levels of BMI1 on the promoters of CCL5, CXCL9, CXCL10 and CXCL11” value is “significantly reduced the levels of BMI1 on these promoters in SCC23 cells”; the “levels of H2AUb marks on the promoters of CCL5, CXCL9, CXCL10 and CXCL11” value is listed as “significantly decreased in SCC23 cells”. In addition, in [2], the “melanoma resistance to anti-PD1” value is reported as “overcomes melanoma resistance to anti-PD1 by recruiting CD8+ T cells”. The “pIRF3 in HNSCC” value in test [3] is recorded as “significantly increased”. The “BMI1 expression in tumors” value in test [4] was “Reduction of BMI1 expression”. The “BMI1 and H2AUb levels” value in test [5] was “reduced BMI1 and H2AUb in SCC23 and SCC1 cells in a dose-dependent manner”. Moreover, the “IFNβ mRNA expression” value in test [6] is on record as “induction of IFNβ mRNA expression in SCC23 cells”. For the same compound, the “xenografted HNSCC growth” value in test [7] is reported as “inhibit xenografted HNSCC growth”. In addition, in [8], the “apoptosis in Tomato+ BMI1+ CSCs” value is recorded as “able to induce apoptosis in Tomato^+ CSCs”. Further, in [9] (SCC1 cells), the “phosphorylation of STING (S366), TBK1 (S172) and IRF3 (S396)” value was “induction of phosphorylation of STING (S366), TBK1 (S172) and IRF3 (S396) in SCC1 cells”. Further, the “phosphorylation of STING (S366), TBK1 (S172) and IRF3 (S396)” value in test [9] (SCC23 cells) was “induction of phosphorylation of STING (S366), TBK1 (S172) and IRF3 (S396) in SCC23 cells”.

These data come from patent publication US20230233566A1, “INHIBITION OF BMI1 ELIMINATES CANCER STEM CELLS AND ACTIVATES ANTITUMOR IMMUNITY” (The Regents of the University of California, priority 2020, published 2023).
